Laboratory results as given in the NIST ThermoML archive (doi:10.1021/je700260f).
“And” between values parts separate entries of the source, which are not always exact repeats. Equal entries are not always repeated. ± gives the expanded uncertainty stated by the source.

Settings: Liquid, Vibrating tube method

FC(C(F)(F)F)C(F)(F)F [1,1,1,2,3,3,3-heptafluoropropane]
Settings | mass density
323.15 K, 30843 kPa | 1467.7 ± 1.7 kg/m3
323.15 K, 30885 kPa | 1467.8 ± 1.7 kg/m3
323.15 K, 32658 kPa | 1474.5 ± 1.7 kg/m3
323.15 K, 32686 kPa | 1474.5 ± 1.7 kg/m3
323.15 K, 34384 kPa | 1480.6 ± 1.7 kg/m3
323.15 K, 34387 kPa | 1480.4 ± 1.7 kg/m3 and 1480.6 ± 1.7 kg/m3
323.16 K, 14143 kPa | 1389.6 ± 1.5 kg/m3
323.16 K, 14163 kPa | 1389.5 ± 1.5 kg/m3
323.16 K, 14186 kPa | 1389.6 ± 1.5 kg/m3
323.16 K, 14200 kPa | 1389.8 ± 1.5 kg/m3
323.16 K, 14366 kPa | 1390.8 ± 1.6 kg/m3
323.16 K, 14386 kPa | 1390.8 ± 1.6 kg/m3
323.16 K, 14409 kPa | 1390.9 ± 1.6 kg/m3
323.16 K, 14427 kPa | 1391.1 ± 1.6 kg/m3
323.16 K, 14450 kPa | 1391.3 ± 1.6 kg/m3
323.16 K, 14470 kPa | 1391.5 ± 1.6 kg/m3
323.16 K, 14492 kPa | 1391.6 ± 1.6 kg/m3
323.16 K, 14509 kPa | 1391.5 ± 1.6 kg/m3
323.16 K, 16696 kPa | 1404.2 ± 1.6 kg/m3
323.16 K, 16719 kPa | 1404.2 ± 1.6 kg/m3
323.16 K, 16735 kPa | 1404.5 ± 1.6 kg/m3
323.16 K, 16783 kPa | 1404.5 ± 1.6 kg/m3
323.16 K, 29984 kPa | 1464.4 ± 1.7 kg/m3
323.16 K, 30010 kPa | 1464.6 ± 1.7 kg/m3
323.16 K, 30040 kPa | 1464.7 ± 1.7 kg/m3
323.16 K, 30071 kPa | 1464.8 ± 1.7 kg/m3
323.16 K, 30102 kPa | 1464.9 ± 1.7 kg/m3
323.16 K, 30132 kPa | 1465 ± 1.7 kg/m3
323.16 K, 30163 kPa | 1465.1 ± 1.7 kg/m3
323.16 K, 30194 kPa | 1465.2 ± 1.7 kg/m3
323.16 K, 30221 kPa | 1465.4 ± 1.7 kg/m3
323.16 K, 30252 kPa | 1465.5 ± 1.7 kg/m3
323.16 K, 30280 kPa | 1465.6 ± 1.7 kg/m3
323.16 K, 30311 kPa | 1465.6 ± 1.7 kg/m3
323.16 K, 30340 kPa | 1465.8 ± 1.7 kg/m3
323.16 K, 30380 kPa | 1466 ± 1.7 kg/m3
323.16 K, 30414 kPa | 1466.1 ± 1.7 kg/m3
323.16 K, 30444 kPa | 1466.3 ± 1.7 kg/m3
323.16 K, 30470 kPa | 1466.4 ± 1.7 kg/m3
323.16 K, 30505 kPa | 1466.5 ± 1.7 kg/m3
323.16 K, 30532 kPa | 1466.6 ± 1.7 kg/m3
323.16 K, 30554 kPa | 1466.6 ± 1.7 kg/m3
323.16 K, 30581 kPa | 1466.8 ± 1.7 kg/m3
333.13 K, 1640 kPa | 1225.8 ± 1.5 kg/m3
333.13 K, 1661 kPa | 1226.3 ± 1.5 kg/m3
333.13 K, 1691 kPa | 1226.6 ± 1.5 kg/m3
333.13 K, 1709 kPa | 1227.1 ± 1.5 kg/m3
333.13 K, 1736 kPa | 1227.6 ± 1.5 kg/m3
333.13 K, 1764 kPa | 1228 ± 1.5 kg/m3
333.13 K, 1789 kPa | 1228.4 ± 1.5 kg/m3
333.13 K, 1815 kPa | 1229 ± 1.5 kg/m3
333.13 K, 1839 kPa | 1229.7 ± 1.5 kg/m3
333.13 K, 1866 kPa | 1229.9 ± 1.5 kg/m3
333.13 K, 1898 kPa | 1230.4 ± 1.5 kg/m3
333.13 K, 1924 kPa | 1231 ± 1.5 kg/m3
333.13 K, 1944 kPa | 1231.2 ± 1.5 kg/m3
333.13 K, 1976 kPa | 1231.8 ± 1.5 kg/m3
333.13 K, 2004 kPa | 1232.3 ± 1.5 kg/m3
333.13 K, 2034 kPa | 1232.9 ± 1.5 kg/m3
333.13 K, 2056 kPa | 1233.2 ± 1.5 kg/m3
333.13 K, 2088 kPa | 1233.7 ± 1.5 kg/m3
333.13 K, 2113 kPa | 1234.2 ± 1.5 kg/m3
333.13 K, 2138 kPa | 1234.6 ± 1.5 kg/m3
333.13 K, 2357 kPa | 1238.4 ± 1.5 kg/m3
333.13 K, 2604 kPa | 1242.4 ± 1.5 kg/m3
333.13 K, 2744 kPa | 1244.5 ± 1.5 kg/m3
333.13 K, 2770 kPa | 1244.9 ± 1.5 kg/m3
333.13 K, 2793 kPa | 1245.1 ± 1.5 kg/m3
333.13 K, 2828 kPa | 1245.9 ± 1.5 kg/m3
333.13 K, 2863 kPa | 1246.2 ± 1.5 kg/m3
333.13 K, 2890 kPa | 1246.6 ± 1.5 kg/m3
333.13 K, 2915 kPa | 1247.1 ± 1.5 kg/m3
333.13 K, 2950 kPa | 1247.6 ± 1.5 kg/m3
333.13 K, 3233 kPa | 1251.7 ± 1.5 kg/m3
333.13 K, 3261 kPa | 1252.3 ± 1.5 kg/m3
333.13 K, 3298 kPa | 1252.9 ± 1.5 kg/m3
333.13 K, 3326 kPa | 1253.1 ± 1.5 kg/m3
333.13 K, 3358 kPa | 1253.7 ± 1.5 kg/m3
333.13 K, 3391 kPa | 1254.2 ± 1.5 kg/m3
333.13 K, 3420 kPa | 1254.6 ± 1.5 kg/m3
333.13 K, 3448 kPa | 1255 ± 1.5 kg/m3
333.13 K, 3488 kPa | 1255.4 ± 1.5 kg/m3
333.13 K, 3517 kPa | 1256 ± 1.5 kg/m3
333.13 K, 3542 kPa | 1256.2 ± 1.5 kg/m3
333.13 K, 3575 kPa | 1256.7 ± 1.5 kg/m3
333.13 K, 3608 kPa | 1257.2 ± 1.5 kg/m3
333.13 K, 3641 kPa | 1257.6 ± 1.5 kg/m3
333.13 K, 3670 kPa | 1258.2 ± 1.5 kg/m3
333.13 K, 3699 kPa | 1258.5 ± 1.5 kg/m3
333.13 K, 3726 kPa | 1258.9 ± 1.5 kg/m3
333.13 K, 3767 kPa | 1259.4 ± 1.5 kg/m3
333.13 K, 3793 kPa | 1259.7 ± 1.5 kg/m3
333.13 K, 3826 kPa | 1260.3 ± 1.5 kg/m3
333.13 K, 3860 kPa | 1260.8 ± 1.5 kg/m3
333.13 K, 3894 kPa | 1261.2 ± 1.5 kg/m3
333.13 K, 3924 kPa | 1261.5 ± 1.5 kg/m3
333.13 K, 3950 kPa | 1261.9 ± 1.5 kg/m3
333.13 K, 3984 kPa | 1262.2 ± 1.5 kg/m3
333.13 K, 4010 kPa | 1262.9 ± 1.5 kg/m3
333.13 K, 4041 kPa | 1263.1 ± 1.5 kg/m3
333.13 K, 4072 kPa | 1263.5 ± 1.5 kg/m3
333.13 K, 4105 kPa | 1264 ± 1.5 kg/m3
333.13 K, 4143 kPa | 1264.4 ± 1.5 kg/m3
